This is an account of results in patent publication US20240360126A1, “PYRAZOLO[3,4-B]PYRIDINE COMPOUNDS FOR THE TREATMENT OF AUTOIMMUNE DISEASE” (Hoffmann-La Roche Inc., priority 2021, published 2024).

The target in this experiment is T1, human TLR8 (Homo sapiens, UniProt Q9NR97).
T1 construct: host or cells: HEK293 (HEK-Blue hTLR8)
T1 sequence (Q9NR97 27-1041): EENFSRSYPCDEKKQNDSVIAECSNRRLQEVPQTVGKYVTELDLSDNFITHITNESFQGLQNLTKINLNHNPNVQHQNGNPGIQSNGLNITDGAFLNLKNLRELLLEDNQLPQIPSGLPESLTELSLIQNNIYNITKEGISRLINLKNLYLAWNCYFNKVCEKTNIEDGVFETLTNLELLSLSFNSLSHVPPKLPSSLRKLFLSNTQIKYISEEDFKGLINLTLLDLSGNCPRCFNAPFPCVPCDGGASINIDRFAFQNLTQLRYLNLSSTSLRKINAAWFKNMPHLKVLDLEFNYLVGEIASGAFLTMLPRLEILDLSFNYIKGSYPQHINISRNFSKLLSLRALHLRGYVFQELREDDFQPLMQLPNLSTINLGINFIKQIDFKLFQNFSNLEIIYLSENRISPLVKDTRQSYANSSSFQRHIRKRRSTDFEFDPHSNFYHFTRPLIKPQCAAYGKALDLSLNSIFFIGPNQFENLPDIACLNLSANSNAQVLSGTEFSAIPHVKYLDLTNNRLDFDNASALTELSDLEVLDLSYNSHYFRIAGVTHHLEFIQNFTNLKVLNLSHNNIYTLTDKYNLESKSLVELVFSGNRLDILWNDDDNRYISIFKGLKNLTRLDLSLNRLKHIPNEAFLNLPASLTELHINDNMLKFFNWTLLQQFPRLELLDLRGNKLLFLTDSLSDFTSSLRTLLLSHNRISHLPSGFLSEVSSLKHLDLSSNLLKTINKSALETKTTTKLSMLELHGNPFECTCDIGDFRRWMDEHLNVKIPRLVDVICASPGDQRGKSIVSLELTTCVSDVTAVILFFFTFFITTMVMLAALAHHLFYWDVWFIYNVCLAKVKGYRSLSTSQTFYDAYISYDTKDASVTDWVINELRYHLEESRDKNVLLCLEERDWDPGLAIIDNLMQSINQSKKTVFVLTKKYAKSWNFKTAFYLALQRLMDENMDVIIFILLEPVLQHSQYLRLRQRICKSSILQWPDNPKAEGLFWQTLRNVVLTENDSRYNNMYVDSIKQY
In words: HEK293-Blue-hTLR-8 cells assay. It counts as cell-based. As to conditions: HEK293-Blue-hTLR8 cells, R848 stimulation, 20 hrs; read-out: HEK/hTLR8 IC50. The source says: A stable HEK293-Blue-hTLR-8 cell line was purchased from InvivoGen (Cat. #: hkb-htlr8, San Diego, California, USA). These cells were originally designed for studying the stimulation of human TLR8 by monitoring the activation of NF-κB. A SEAP (secreted embryonic alkaline phosphatase) reporter gene was placed under the control of the IFN-β minimal promoter fused to five NF-κB and AP-1-binding sites. The SEAP was induced by activating NF-κB and AP-1 via stimulating HEK-Blue hTLR8 cells with TLR8 ligands. Therefore the reporter expression was declined by TLR8 antagonist under the stimulation of a ligand, such as R848, for incubation of 20 hrs. The cell culture supernatant SEAP reporter activity was determined using QUANTT-BlueTv™ kit (Cat. #: rep-qbl, Invivogen, San Diego, Ca, USA) at a wavelength of 640 nm, a detection medium that turns purple or blue in the presence of alkaline phosphatase.
HEK293-Blue-hTLR8 cells were incubated at a density of 250,000˜450,000 cells/mL in a volume of 170 μL in a 96-well plate in Dulbecco's Modified Eagle's medium (DMEM) containing 4.5 g/L glucose, 50 U/mi penicillin, […] streptomycin, […], 2 mM L-glutamine, 10% (v/v) heat-inactivated fetal bovine serum with addition of 20 μL test compound in a serial dilution in the presence of final DMSO at 1% and 10 μL of 60 μM R848 in above DMEM, perform incubation under 37° C. in a CO2 incubator for 20 hrs. Then 20 μL of the supernatant from each well was incubated with 180 μL Quanti-blue substrate solution at 37° C. for 2 hrs and the absorbance was read at 620-655 nm using a spectrophotometer. The signaling pathway that TLR8 activation leads to downstream NF-κB activation has been widely accepted, and therefore similar reporter assay was modified for evaluating TLR8 antagonist.
Take `Cc1cc(N2CCC(c3cnc(N4CCNCC4)cc3C)[C@H](C)C2)c2cnn(C)c2n1` (single isomer, unassigned) [Example 20, 1,6-dimethyl-4-[cis-3-methyl-4-(4-methyl-6-piperazin-1-yl-3-pyridyl)-1-piperidyl]pyrazolo[3,4-b]pyridine]: the IC50 is 6 nM.

For the molecule `Cc1cc(N2CCC(c3cnc(N4CCNCC4)cc3C)[C@H](C)C2)c2cnn(C)c2n1` (single isomer, unassigned) [Example 21, 1,6-dimethyl-4-[trans-3-methyl-4-(4-methyl-6-piperazin-1-yl-3-pyridyl)-1-piperidyl]pyrazolo[3,4-b]pyridine], the IC50 was 3 nM.

For the molecule `Cc1cc(N2CCC(c3ncc(N4CCNCC4)nc3C)[C@H](C)C2)c2cnn(C)c2n1` (single isomer, unassigned) [Example 22, 1,6-dimethyl-4-[cis-3-methyl-4-(3-methyl-5-piperazin-1-yl-pyrazin-2-yl)-1-piperidyl]pyrazolo[3,4-b]pyridine], the IC50 was found to be 6 nM.

Take `Cc1cc(N2CCC(c3ncc(N4CCNCC4)nc3C)[C@H](C)C2)c2cnn(C)c2n1` (single isomer, unassigned) [Example 23, 1,6-dimethyl-4-[trans-3-methyl-4-(3-methyl-5-piperazin-1-yl-pyrazin-2-yl)-1-piperidyl]pyrazolo[3,4-b]pyridine]: the IC50 is 7 nM.

For `Cc1cc(N2CCC(c3ncc(N4CCNCC4)cc3C)[C@H](C)C2)c2cnn(C)c2n1` (single isomer, unassigned) [Example 24, 1,6-dimethyl-4-[cis-3-methyl-4-(3-methyl-5-piperazin-1-yl-2-pyridyl)-1-piperidyl]pyrazolo[3,4-b]pyridine], the IC50 was found to be 5 nM.

For the molecule `Cc1cc(N2CCC(c3ncc(N4CCNCC4)cc3C)[C@H](C)C2)c2cnn(C)c2n1` (single isomer, unassigned) [Example 25, 1,6-dimethyl-4-[trans-3-methyl-4-(3-methyl-5-piperazin-1-yl-2-pyridyl)-1-piperidyl]pyrazolo[3,4-b]pyridine], the IC50 is 7 nM.

`Cc1cc(N2CCC(c3ccc(N4CCNCC4)cc3)CC2)c2cnn(C)c2n1` [Example 1, 1,6-dimethyl-4-[4-(4-piperazin-1-ylphenyl)-1-piperidyl]pyrazolo[3,4-b]pyridine]: the IC50 amounted to 12 nM.

In the case of `Cc1cc(N2CCC(c3ccc(N4CCNCC4)cn3)CC2)c2cnn(C)c2n1` [Example 2, 1,6-dimethyl-4-[4-(5-piperazin-1-yl-2-pyridyl)-1-piperidyl]pyrazolo[3,4-b]pyridine], the IC50 was found to be 21 nM.

Regarding `Cc1cc(N2CCC(c3cnc(N4CCNCC4)cn3)CC2)c2cnn(C)c2n1` [Example 3, 1,6-dimethyl-4-[4-(5-piperazin-1-ylpyrazin-2-yl)-1-piperidyl]pyrazolo[3,4-b]pyridine], the IC50 was found to be 50 nM.

For `Cc1cc(N2CCC(c3ncc(N4CCNCC4)cn3)CC2)c2cnn(C)c2n1` [Example 4, 1,6-dimethyl-4-[4-(5-piperazin-1-ylpyrimidin-2-yl)-1-piperidyl]pyrazolo[3,4-b]pyridine], the IC50 amounted to 59 nM.

In the case of `Cc1cc(N2CCNCC2)cnc1C1CCN(c2ccnc3c2cnn3C)CC1` [Example 5, 1-methyl-4-[4-(3-methyl-5-piperazin-1-yl-2-pyridyl)-1-piperidyl]pyrazolo[3,4-b]pyridine], the IC50 stood at 64 nM.

Consider `Cc1cc(N2CCNCC2)ncc1C1CCN(c2ccnc3c2cnn3C)CC1` [Example 6, 1-methyl-4-[4-(4-methyl-6-piperazin-1-yl-3-pyridyl)-1-piperidyl]pyrazolo[3,4-b]pyridine], for which the IC50 was found to be 37 nM.

On to `Cc1cc(N2CCC(c3ncc(N4CCNCC4)cc3C)CC2)c2cnn(C)c2n1` [Example 7, 1,6-dimethyl-4-[4-(3-methyl-5-piperazin-1-yl-2-pyridyl)-1-piperidyl]pyrazolo[3,4-b]pyridine], for which the IC50 stood at 29 nM.

As for `Cc1cc(N2CCC(c3cnc(N4CCNCC4)cc3C)CC2)c2cnn(C)c2n1` [Example 8, 1,6-dimethyl-4-[4-(4-methyl-6-piperazin-1-yl-3-pyridyl)-1-piperidyl]pyrazolo[3,4-b]pyridine], the IC50 worked out at 8 nM.

Consider `Cc1cc(N2CCC(c3cc(C)c(N4CCNCC4)cn3)CC2)c2cnn(C)c2n1` [Example 9, 1,6-dimethyl-4-[4-(4-methyl-5-piperazin-1-yl-2-pyridyl)-1-piperidyl]pyrazolo[3,4-b]pyridine], for which the IC50 turned out to be 31 nM.

For `Cc1cc(N2CCC(c3ccc(N4CCNCC4)nc3C)CC2)c2cnn(C)c2n1` [Example 10, 1,6-dimethyl-4-[4-(2-methyl-6-piperazin-1-yl-3-pyridyl)-1-piperidyl]pyrazolo[3,4-b]pyridine], the IC50 stood at 13 nM.

As to `Cc1cc(N2CCC(c3cnc(N4CCNCC4)nc3C)CC2)c2cnn(C)c2n1` [Example 11, 1,6-dimethyl-4-[4-(4-methyl-2-piperazin-1-yl-pyrimidin-5-yl)-1-piperidyl]pyrazolo[3,4-b]pyridine], the IC50 turned out to be 42 nM.

Consider `CCc1cc(N2CCNCC2)cnc1C1CCN(c2cc(C)nc3c2cnn3C)CC1` [Example 13, 4-[4-(3-ethyl-5-piperazin-1-yl-2-pyridyl)-1-piperidyl]-1,6-dimethyl-pyrazolo[3,4-b]pyridine], for which the IC50 was determined as 44 nM.

On to `COc1cc(N2CCNCC2)cnc1C1CCN(c2cc(C)nc3c2cnn3C)CC1` [Example 14, 4-[4-(3-methoxy-5-piperazin-1-yl-2-pyridyl)-1-piperidyl]-1,6-dimethyl-pyrazolo[3,4-b]pyridine], for which the IC50 came to 13 nM.

As for `Cc1cc(N2CCC(c3ncc(N4CC[C@@H](N)[C@@H](F)C4)cc3C)CC2)c2cnn(C)c2n1` [Example 15, (3S,4R)-1-[6-[1-(1,6-dimethylpyrazolo[3,4-b]pyridin-4-yl)-4-piperidyl]-5-methyl-3-pyridyl]-3-fluoro-piperidin-4-amine], the IC50 is 47 nM.

For `COC[C@H]1CN(c2cnc(C3CCN(c4cc(C)nc5c4cnn5C)CC3)c(C)c2)CCN1` [Example 16, 4-[4-[5-[(3R)-3-(methoxymethyl)piperazin-1-yl]-3-methyl-2-pyridyl]-1-piperidyl]-1,6-dimethyl-pyrazolo[3,4-b]pyridine], the IC50 turned out to be 32 nM.

In the case of `CO[C@H]1CN(c2cnc(C3CCN(c4cc(C)nc5c4cnn5C)CC3)c(C)c2)CC[C@@H]1N` [Example 17, (3S,4S)-1-[6-[1-(1,6-dimethylpyrazolo[3,4-b]pyridin-4-yl)-4-piperidyl]-5-methyl-3-pyridyl]-3-methoxy-piperidin-4-amine], the IC50 was determined as 39 nM.

`CO[C@@H]1CN(c2cnc([C@@H]3CCN(c4cc(C)nc5c4cnn5C)C[C@H]3C)c(C)c2)C[C@H]1N` [Example 26, (3R,4R)-1-[6-[(3S,4R)-1-(1,6-dimethylpyrazolo[3,4-b]pyridin-4-yl)-3-methyl-4-piperidyl]-5-methyl-3-pyridyl]-4-methoxy-pyrrolidin-3-amine]: the IC50 is 14 nM.

As for `Cc1cc(N2CC[C@@H](c3ncc(N4CC5(CNCCO5)C4)cc3C)[C@H](C)C2)c2cnn(C)c2n1` [Example 27, 2-[6-[(3S,4R)-1-(1,6-dimethylpyrazolo[3,4-b]pyridin-4-yl)-3-methyl-4-piperidyl]-5-methyl-3-pyridyl]-5-oxa-2,8-diazaspiro[3.5]nonane], the IC50 was found to be 7 nM.
